Laboratory results from US11339193B2, “CDP protein secretion inhibitors” (KEZAR LIFE SCIENCES, priority 2018, dated 2022).
pEC50, pIC50: −log10 of the molar value. Peptide text beside a SMILES is read from it.

How the values were obtained:
Format in all cases: cell-based
[1] = test system: VCAMss+10aa/Gaussia Luciferase; test: VCAM-ss-Gluc assay (constitutively active or Dox induced); conditions: Flp-In 293 T-REx cells, 24 hours
How it was run: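 Stable cell lines secreting a VCAM signal sequence+10aa/Gaussia luciferase fusion, expressed either constitutively or under T-REx doxycycline control. Cells plated the day before; compound dilutions in DMSO/media (with doxycycline for the induced line) added and incubated at 37° C, 5% CO2.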

[2] = test system: JJN3 plasma cell leukemia cell line; test: JJN-3 assay (Alamar blue); conditions: Homo sapiens, 72 h
How it was run: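 For both lines, 5000 cells/well were exposed to compound or a 1% DMSO-medium control for 72 h unless otherwise specified. Signal was normalized to the DMSO control.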

HER3ss-Gluc = test: HER3ss assay; conditions: HEK-293T T-rex cells, transient transfection, doxycycline, 24 h; read-out: HER3 ss IC50
How it was run: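 HEK-293T T-REx cells were transiently transfected with HER3 signal sequence (plus four mature-domain residues) fused upstream of mature Gaussia luciferase. Cells were induced with doxycycline (1 μg/ml) and exposed to increasing compound concentrations for 24 h, then secreted luciferase in the conditioned medium was read by luminescence.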

[3] = test system: Prl-ss+10aa/Gaussia Luciferase; test: Prl-ss-Gluc assay (constitutively active or 24 hr Dox inducible); conditions: Flp-In 293 T-REx cells, 24 hours; read-out: Prl IC50
How it was run: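 Stable Flp-In 293 T-REx lines express Prl signal sequence+10aa fused to Gaussia luciferase, either constitutively (pcDNA5/FRT) or under the T-REx promoter (pcDNA5/FRT/TO). Cells plated the day before; compounds in DMSO/media (with doxycycline for the inducible line, 24 h) incubated at 37 °C, 5% CO2.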

Row | Compound | pIC50 [1] | pEC50 [2] | pIC50 (HER3ss-Gluc) | pIC50 [3]
1 | C#CC[C@H]1OC(=O)[C@H](C)N(C)C(C)[C@H](C[C@H](C)CCCC)NC(=O)[C@H](Cc2ccccc2)N(C)C(=O)[C@H](CC(C)C)NC(=O)[C@H](CC(C)C)N(C)C(=O)[C@H](C[C@H](C)CCCC)NC1=O (some centres unmarked) [C-01] | 7.82 | 6.65 | 7.40 | 4.94
2 | CC(C)C[C@@H]1NC(=O)[C@H](Cc2cn(Cc3ccccc3)c3ccccc23)N(C)C(=O)[C@H](CC(C)C)NC(=O)[C@H](CC(C)C)N(C)C(=O)[C@H](CC(C)C)NC(=O)[C@@H](CCC#N)OC(=O)[C@H](C)N(C)C1=O [C-16] (HELM PEPTIDE1{L.[meA].[N#CCC[C@@H](O[*:1])C(=O)[*:2]].L.[meL].L.[CN([C@@H](Cc1cn(Cc2ccccc2)c2ccccc12)C(=O)[*:2])[*:1]]}$PEPTIDE1,PEPTIDE1,1:R1-7:R2$$$V2.0) | 7.09 | 6.61 | 7.42 | 5.74
